“And” between values parts separate entries of the source, which are not always exact repeats. Equal entries are not always repeated. Where two headings read alike, the source gives them in different places. Values belong to the molecule of their own block, whether it stands above or below them.
Legend:
[1] = format: in vivo, Wistar rats; settings: for Cmax: mean ± SEM (n = 5)
[2] = cited from earlier work; for elevation of oral exposure of repaglinide upon coadministration: clinical
[3] = test system: CYP2C8; settings: read-out: IC50 for CYP2C8 inhibitory activity; mixed type of inhibition; cited from earlier work
[4] = biological target: T1, CYP2C8 (Homo sapiens, UniProt P10632); settings: read-out: Ki for CYP2C8 inhibition in HLM; cited from earlier work
T1 sequence (P10632 1-490): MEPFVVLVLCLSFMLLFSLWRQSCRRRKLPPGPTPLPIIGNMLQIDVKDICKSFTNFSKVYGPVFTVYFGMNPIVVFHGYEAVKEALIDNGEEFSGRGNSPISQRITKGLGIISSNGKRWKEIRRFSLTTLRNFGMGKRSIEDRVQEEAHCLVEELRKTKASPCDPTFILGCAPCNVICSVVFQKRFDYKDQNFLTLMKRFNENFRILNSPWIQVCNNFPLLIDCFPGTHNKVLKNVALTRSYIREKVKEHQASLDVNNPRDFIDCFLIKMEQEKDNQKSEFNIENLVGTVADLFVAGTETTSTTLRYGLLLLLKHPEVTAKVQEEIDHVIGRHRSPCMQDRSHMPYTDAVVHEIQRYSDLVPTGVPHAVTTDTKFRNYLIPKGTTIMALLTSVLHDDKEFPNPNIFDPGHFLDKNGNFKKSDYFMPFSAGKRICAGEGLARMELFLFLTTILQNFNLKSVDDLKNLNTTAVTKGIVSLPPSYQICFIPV

[5] = cited from earlier work
[6] = test system: amodiaquine metabolism in rat liver microsomes (RLM); format: in vitro ADME; settings: RLM 0.5 mg/mL, amodiaquine 2 μM, myricetin 0, 10, 100 μM, 30 min
[7] = test system: CYP3A4; settings: cited from earlier work; for Ki: read-out: Ki for CYP3A4
[8] = test system: CYP2D6; settings: read-out: IC50 for CYP2D6; cited from earlier work
[9] = biological target: T1, CYP2C8; test: biochemical
[10] = biological target: T1, CYP2C8
[11] = rat model; cited from earlier work
[12] = substrate: CCN(CC)Cc1cc(Nc2ccnc3cc(Cl)ccc23)ccc1O; test: Kinetic parameters of CYP2C8-catalyzed amodiaquine-N-deethylation in HLM; format: in vitro ADME, human; settings: other: HLM, N-desethylamodiaquine formation; pH 7.4; 37.0 °C
[13] = rats, amodiaquine 60 mg/kg oral alone (Group-I)
[14] = rats, myricetin 5 mg/kg i.v. followed by amodiaquine 60 mg/kg oral (Group-II)

AUC0–t [1, 13]: 1313.30 ± 349.54 ng·h/mL
AUC0–∞ [1, 13]: 3362.65 ± 667.75 ng·h/mL
MRT [1, 13]: 18.70 ± 4.68 h
T1/2 [1, 13]: 11.65 ± 3.21 h
Tmax [1, 13]: 4.20 ± 0.80 h
Cmax [1, 13]: 370.40 ± 125.05 ng/mL
AUC0–t [1, 14]: 2061.57 ± 452.16 ng·h/mL
AUC0–∞ [1, 14]: 3980.79 ± 1273.24 ng·h/mL
MRT [1, 14]: 12.64 ± 4.42 h
T1/2 [1, 14]: 7.91 ± 3.00 h
Tmax [1, 14]: 3.60 ± 0.81 h
Molecule: CCNCc1cc(Nc2ccnc3cc(Cl)ccc23)ccc1O [N-desethylamodiaquine]

AUC(0-t) ([1]; male, Wistar, rat, plasma, po, 60 mg/kg, AUC0–t, rats, amodiaquine 60 mg/kg oral alone (Group-I)): 3120 ± 414 ng·h/mL
Cmax ([1]; male, Wistar, rat, plasma, po, 60 mg/kg, Cmax, rats, amodiaquine 60 mg/kg oral alone (Group-I)): 1030 ± 247 ng/mL
half-life ([1]; male, Wistar, rat, plasma, po, 60 mg/kg, T1/2, rats, amodiaquine 60 mg/kg oral alone (Group-I)): 2.16 ± 0.3 h
Molecule: CCN(CC)Cc1cc(Nc2ccnc3cc(Cl)ccc23)ccc1O [amodiaquine]

Molecule: COC(=O)[C@H](c1ccccc1Cl)N1CCc2sccc2C1 [clopidogrel]
elevation of oral exposure of repaglinide upon coadministration [2]: 5 fold

Molecule: O=c1c(O)c(-c2ccc(O)c(O)c2)oc2cc(O)ccc12 [fisetin]
IC50 [3]: 10.8 µM

Molecule: Cc1ccc(C)c(OCCCC(C)(C)C(=O)O)c1 [gemfibrozil]
Ki [4]: 10.2 µM
Cmax ([5]; 600 mg twice daily, healthy human volunteers): 16850 ng/mL
increase in oral exposure of cerivastatin ([2]; human subjects): about 5.6 fold
enhancement of AUC of repaglinide ([2]; humans): 8.3 fold
enhancement of Cmax of repaglinide ([2]; humans): 2.4 fold
enhancement of bioavailability of sitagliptin ([2]; humans): 54%

Molecule: O=c1c(O)c(-c2ccc(O)cc2O)oc2cc(O)cc(O)c12 [morin]
IC50 [3]: 17.3 µM

plasma exposure of N-desethylamodiaquine ([1]; rats, myricetin coadministration vs amodiaquine without myricetin): Substantial elevation
Ki [9]: 1.7 ± 0.11 µM
IC50 [10]: 2.4 ± 0.05 µM
α-value ([10]; HLM, mixed inhibition model): 3.55
Molecule: O=c1c(O)c(-c2cc(O)c(O)c(O)c2)oc2cc(O)cc(O)c12 [myricetin, Myricetin]
percent of amodiaquine remaining [6]: increased with the increasing concentration of myricetin
IC50 ([7]; read-out: IC50 for CYP3A4): 10.7 µM and 20.3 µM
IC50 [8]: 30.2 µM
Cmax in plasma ([5]; humans, oral cranberry juice containing myricetin): 21600 ± 5700 ng/mL

Molecule: O=c1c(O)c(-c2ccc(O)c(O)c2)oc2cc(O)cc(O)c12 [quercetin]
Cmax ([5]; humans, 100 mg dose): 2310 ng/mL
enhancement of oral exposure of repaglinide [11]: 1.8 fold

Molecule: Oc1ccc(/C=C/c2cc(O)cc(O)c2)cc1 [trans-resveratrol]
Cmax ([5]; humans, 2000 mg dose): 1274 ng/mL
decrease of clearance of carbamazepine ([2]; clinical study): 33%
enhancement of AUC of carbamazepine ([2]; clinical study): 1.4 fold

Molecule: COc1cc(Cc2cnc(N)nc2N)cc(OC)c1OC [trimethoprim]
elevation of oral exposure of repaglinide upon coadministration [2]: 2 fold

B1: CYP2C8 (Homo sapiens) (protein)
chain: T1 sequence (P10632 1-490)
Km [12]: 4.7 ± 0.12 µM
Vmax [12]: 3996 ± 46 pmol/min/mg protein

Source: PMC9026026 (ACS Omega, 2022)
